Publication PMC10641913 (ACS Medicinal Chemistry Letters, 2023)
“And” between values parts separate entries of the source, which are not always exact repeats. Equal values may be shown once.

Legend:
[1] = tested on: S. mansoni; details: ref [1]; cited from earlier work
[2] = target: Sm.TRPMPZQ (Schistosoma mansoni, UniProt A0A5K4F0X5); assay: cell-based; assay type: cell-based; details: for this work: EC50 (μM) Sm.TRPMPZQ / EC50: HEK293 transient expression, mean ± SEM, n ≥ 3 independent transfections; for EC50: read-out: this work: EC50 (μM) Sm.TRPMPZQ
Protocol: (§1) This was done using a fluorescence-based reporter assay to measure changes in cytosolic Ca^2+ in HEK293 cells transiently expressing the individual TRPMPZQ ion channels.
(§2) Sprague et. al. Supporting Information
(§3) Cell Culture and transfection. Activation of the three TRPMPZQ orthologs1 (Sm.TRPMPZQ, Eg.TRPMPZQ and Mc.TRPMPZQ) was measured using a Ca2+ reporter assay, following transient transfection of codon-optimized constructs (Genscript) into HEK293 cells.
(§4) The HEK293 cell line (ATCC CRL-1573.3) was authenticated by STR profiling (ATCC), and cells were evaluated for mycoplasma contamination by monthly scheduled testing (LookOut® Mycoplasma PCR Detection Kit, Sigma). HEK293 cells were cultured at 37 °C in a humidified incubator in Dulbecco’s Modified Eagle Medium (DMEM) supplemented with 10% fetal bovine serum (FBS), penicillin (100 units/mL), streptomycin (100 μg/mL), and L-glutamine (290 μg/mL). Cells were transfected using Lipofectamine-2000 at a density of 3x10^6 cells per petri dish (100 mm diameter) 24 h prior to replating into 384 well plates for functional assays.
(§5) Ca2+ imaging assays. Ca2+ imaging assays were performed using a Fluorescence Imaging Plate Reader (FLIPR TETRA, Molecular Devices). HEK293 cells (naïve or transfected) were seeded (20,000 cells/well) in a black-walled clear-bottomed poly-d-lysine coated 384-well plate (Greiner Bio-One) in DMEM growth media supplemented with 10% FBS. After 24 h, growth medium was removed, and cells were loaded with a fluorescent Ca2+ indicator (Fluo-4 NW dye, Invitrogen) by incubation (20 µL per well, 1 h at 37°C) in Hanks' balanced salt solution (HBSS) assay buffer containing probenecid (2.5 mM) and HEPES (20 mM). Drug dilutions were prepared in assay buffer, without probenecid and dye, in ‘V’-shape 384-well plates (Greiner Bio-one, Germany). After indicator loading, the Ca2+ assay was performed at room temperature. Basal fluorescence was monitored for 20 s, then 5 μL of each drug added, and the signal (raw fluorescence units) was monitored over an additional 250 s. Changes in fluorescence were calculated by subtracting the average basal fluorescence (averaged values between 0 to 20 s) from the maximum fluorescence value. These values were normalized to the response of (±)-PZQ at the corresponding TRPMPZQ channel and plotted. Concentration-response curves were generated in GraphPad Prism (v.
(§6) 9.5.1) using the default three -parameter curve fitting and constraining the bottom of the curve to 0%. The reported EC 50 values represent the mean ± SEM of n ≥ 3 independent transfections. […]

[3] = tested on: H. nana; set-up: key: “+++” indicates a complete reduction of worms at 25 mg/kg dosing (×1); “++” indicates complete reduction of worms at 500 mg/kg dosing (×1); “+” indicates less than 90% worm reduction at 500 mg/kg dosing (×1); “0” indicates no effect at 500 mg/kg dosing (×1); details: mouse model, dosing ×1; ref [1]; cited from earlier work
[4] = target: Eg.TRPMPZQ (Echinococcus granulosus, UniProt W6UVV9); assay type: cell-based; details: Eg.TRPMPZQ and Mc.TRPMPZQ; for activity at cestode TRPMPZQ orthologs (in words): both cestode channels
Protocol: as §1, §2, §3, §4, §5, §6

[5] = tested on: S. mansoni; set-up: key: “+++” indicates a complete reduction of worms at 50 mg/kg dosing (×5); “++” indicates complete reduction of worms at 500 mg/kg dosing (×5); “+” indicates less than 90% worm reduction at 500 mg/kg dosing (×5); “0” indicates no effect at 500 mg/kg dosing (×5); details: mouse model, dosing ×5; ref [1]; cited from earlier work
[6] = tested on: E. multilocularis protoscoleces; assay: Cestode motility assay on protoscoleces; assay type: cell-based, Echinococcus multilocularis; details: for IC50: Echinococcus multilocularis
Protocol: To determine IC50 values, concentration–response curves were obtained at multiple time points (Figure 2E–G).
Figure 2 E. multilocularis protoscoleces after treatment with (A) DMSO, (B) (±)-PZQ (1 μM), (C) (R)-2 (30 μM), and (D) (S)-2 (100 μM). (E–G) Concentration–response motility graphs of E. multilocularis protosoleces after treatment with (±)-PZQ (blue circles), (R)-2 (red circles), and (S)-2 (purple circles) after (E) 0.5 h, (F) 12 h, and (G) 24 h. Data are plotted as % motility vs vehicle (DMSO) control (mean ± SEM). […]
Cestode motility assays . Protoscoleces of E. multilocularis strain MB17 were isolated from metacestode material grown in experimentally infected gerbils (kindly provided by Prof. Dr. K. Brehm, University of Würzburg, Germany). Extraction and acti vation of protoscoleces, as well as subsequent motility assays were performed as described previously. 2 In short, protoscoleces were activated by 10% DMSO for 3 h at 37°C, in a humid atmosphere, with 5% CO 2 and left to recover overnight in DMEM (Biochrom, Berlin, Germany) supplemented with 10% FBS (Biochrom) at 37°C, in a humid atmosphere, with 5% CO 2. The next day, 25 protoscoleces were distributed into individual wells of a white, flat -bottom 384 well plate (Huberlab, Aesch, Switzerland). PZQ analogs were added […]
The assay plate was sealed with a clear view seal foil (Huberlab), and motility was measured in a live cell imaging system (Nikon TE2000E, Hamatsu ORCA ER

Sm.TRPMPZQ, sequence (A0A5K4F0X5 entry or part of it): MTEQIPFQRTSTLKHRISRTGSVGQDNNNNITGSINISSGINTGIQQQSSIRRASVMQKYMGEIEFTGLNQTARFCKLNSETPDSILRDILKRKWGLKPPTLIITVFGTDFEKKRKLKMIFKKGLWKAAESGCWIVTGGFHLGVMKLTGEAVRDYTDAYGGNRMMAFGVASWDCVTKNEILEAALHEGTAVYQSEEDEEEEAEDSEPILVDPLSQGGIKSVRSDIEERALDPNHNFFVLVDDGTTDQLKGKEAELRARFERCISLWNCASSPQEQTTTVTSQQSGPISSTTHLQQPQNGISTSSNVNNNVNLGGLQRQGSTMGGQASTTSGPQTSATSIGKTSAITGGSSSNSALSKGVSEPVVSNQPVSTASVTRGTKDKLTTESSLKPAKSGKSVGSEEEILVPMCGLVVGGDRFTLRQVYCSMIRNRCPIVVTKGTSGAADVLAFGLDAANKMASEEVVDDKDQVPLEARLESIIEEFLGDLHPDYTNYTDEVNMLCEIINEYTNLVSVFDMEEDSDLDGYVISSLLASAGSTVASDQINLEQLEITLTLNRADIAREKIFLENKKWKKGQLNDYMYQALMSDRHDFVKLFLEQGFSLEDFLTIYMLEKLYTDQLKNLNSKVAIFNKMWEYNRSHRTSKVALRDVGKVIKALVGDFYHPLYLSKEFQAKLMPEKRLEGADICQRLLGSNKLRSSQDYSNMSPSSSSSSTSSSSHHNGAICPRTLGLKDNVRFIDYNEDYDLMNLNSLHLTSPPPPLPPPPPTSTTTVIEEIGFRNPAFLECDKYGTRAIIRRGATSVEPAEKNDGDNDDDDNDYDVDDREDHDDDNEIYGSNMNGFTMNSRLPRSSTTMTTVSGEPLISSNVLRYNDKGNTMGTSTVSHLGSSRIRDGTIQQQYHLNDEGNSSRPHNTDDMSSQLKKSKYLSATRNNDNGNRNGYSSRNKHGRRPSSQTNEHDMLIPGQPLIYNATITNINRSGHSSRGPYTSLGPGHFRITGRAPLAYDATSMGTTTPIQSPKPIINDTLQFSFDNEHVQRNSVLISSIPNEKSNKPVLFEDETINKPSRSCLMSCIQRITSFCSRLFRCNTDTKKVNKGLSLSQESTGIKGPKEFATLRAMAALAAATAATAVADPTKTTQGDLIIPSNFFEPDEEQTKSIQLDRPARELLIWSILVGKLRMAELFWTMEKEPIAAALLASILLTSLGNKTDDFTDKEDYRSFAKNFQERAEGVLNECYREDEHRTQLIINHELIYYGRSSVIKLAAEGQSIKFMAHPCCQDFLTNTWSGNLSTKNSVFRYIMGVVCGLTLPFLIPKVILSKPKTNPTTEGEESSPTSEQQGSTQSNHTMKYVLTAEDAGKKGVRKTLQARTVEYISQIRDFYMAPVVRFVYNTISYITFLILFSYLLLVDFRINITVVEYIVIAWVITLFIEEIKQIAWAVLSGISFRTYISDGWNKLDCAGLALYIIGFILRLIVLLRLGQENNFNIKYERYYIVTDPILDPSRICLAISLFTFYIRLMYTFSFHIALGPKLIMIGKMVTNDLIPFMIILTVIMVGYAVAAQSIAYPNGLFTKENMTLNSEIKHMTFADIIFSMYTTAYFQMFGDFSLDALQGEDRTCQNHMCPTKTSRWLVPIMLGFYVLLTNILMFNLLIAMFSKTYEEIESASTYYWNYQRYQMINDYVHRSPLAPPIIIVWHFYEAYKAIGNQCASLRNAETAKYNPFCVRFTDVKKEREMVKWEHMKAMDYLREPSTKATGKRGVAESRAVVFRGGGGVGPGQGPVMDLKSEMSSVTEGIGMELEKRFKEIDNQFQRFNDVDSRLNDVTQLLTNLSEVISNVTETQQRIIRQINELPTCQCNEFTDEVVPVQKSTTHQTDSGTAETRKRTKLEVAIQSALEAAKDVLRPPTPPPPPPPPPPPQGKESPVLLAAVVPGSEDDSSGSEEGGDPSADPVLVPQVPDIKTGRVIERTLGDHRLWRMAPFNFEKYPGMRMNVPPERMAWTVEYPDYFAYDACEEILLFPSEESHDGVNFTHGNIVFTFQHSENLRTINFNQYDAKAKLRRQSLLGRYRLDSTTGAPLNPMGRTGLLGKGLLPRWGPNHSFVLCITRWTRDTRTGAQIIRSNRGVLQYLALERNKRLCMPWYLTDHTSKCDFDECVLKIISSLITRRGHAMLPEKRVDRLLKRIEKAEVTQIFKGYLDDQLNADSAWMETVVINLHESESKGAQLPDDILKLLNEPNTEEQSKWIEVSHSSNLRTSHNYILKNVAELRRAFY
Eg.TRPMPZQ, sequence (W6UVV9 entry or part of it): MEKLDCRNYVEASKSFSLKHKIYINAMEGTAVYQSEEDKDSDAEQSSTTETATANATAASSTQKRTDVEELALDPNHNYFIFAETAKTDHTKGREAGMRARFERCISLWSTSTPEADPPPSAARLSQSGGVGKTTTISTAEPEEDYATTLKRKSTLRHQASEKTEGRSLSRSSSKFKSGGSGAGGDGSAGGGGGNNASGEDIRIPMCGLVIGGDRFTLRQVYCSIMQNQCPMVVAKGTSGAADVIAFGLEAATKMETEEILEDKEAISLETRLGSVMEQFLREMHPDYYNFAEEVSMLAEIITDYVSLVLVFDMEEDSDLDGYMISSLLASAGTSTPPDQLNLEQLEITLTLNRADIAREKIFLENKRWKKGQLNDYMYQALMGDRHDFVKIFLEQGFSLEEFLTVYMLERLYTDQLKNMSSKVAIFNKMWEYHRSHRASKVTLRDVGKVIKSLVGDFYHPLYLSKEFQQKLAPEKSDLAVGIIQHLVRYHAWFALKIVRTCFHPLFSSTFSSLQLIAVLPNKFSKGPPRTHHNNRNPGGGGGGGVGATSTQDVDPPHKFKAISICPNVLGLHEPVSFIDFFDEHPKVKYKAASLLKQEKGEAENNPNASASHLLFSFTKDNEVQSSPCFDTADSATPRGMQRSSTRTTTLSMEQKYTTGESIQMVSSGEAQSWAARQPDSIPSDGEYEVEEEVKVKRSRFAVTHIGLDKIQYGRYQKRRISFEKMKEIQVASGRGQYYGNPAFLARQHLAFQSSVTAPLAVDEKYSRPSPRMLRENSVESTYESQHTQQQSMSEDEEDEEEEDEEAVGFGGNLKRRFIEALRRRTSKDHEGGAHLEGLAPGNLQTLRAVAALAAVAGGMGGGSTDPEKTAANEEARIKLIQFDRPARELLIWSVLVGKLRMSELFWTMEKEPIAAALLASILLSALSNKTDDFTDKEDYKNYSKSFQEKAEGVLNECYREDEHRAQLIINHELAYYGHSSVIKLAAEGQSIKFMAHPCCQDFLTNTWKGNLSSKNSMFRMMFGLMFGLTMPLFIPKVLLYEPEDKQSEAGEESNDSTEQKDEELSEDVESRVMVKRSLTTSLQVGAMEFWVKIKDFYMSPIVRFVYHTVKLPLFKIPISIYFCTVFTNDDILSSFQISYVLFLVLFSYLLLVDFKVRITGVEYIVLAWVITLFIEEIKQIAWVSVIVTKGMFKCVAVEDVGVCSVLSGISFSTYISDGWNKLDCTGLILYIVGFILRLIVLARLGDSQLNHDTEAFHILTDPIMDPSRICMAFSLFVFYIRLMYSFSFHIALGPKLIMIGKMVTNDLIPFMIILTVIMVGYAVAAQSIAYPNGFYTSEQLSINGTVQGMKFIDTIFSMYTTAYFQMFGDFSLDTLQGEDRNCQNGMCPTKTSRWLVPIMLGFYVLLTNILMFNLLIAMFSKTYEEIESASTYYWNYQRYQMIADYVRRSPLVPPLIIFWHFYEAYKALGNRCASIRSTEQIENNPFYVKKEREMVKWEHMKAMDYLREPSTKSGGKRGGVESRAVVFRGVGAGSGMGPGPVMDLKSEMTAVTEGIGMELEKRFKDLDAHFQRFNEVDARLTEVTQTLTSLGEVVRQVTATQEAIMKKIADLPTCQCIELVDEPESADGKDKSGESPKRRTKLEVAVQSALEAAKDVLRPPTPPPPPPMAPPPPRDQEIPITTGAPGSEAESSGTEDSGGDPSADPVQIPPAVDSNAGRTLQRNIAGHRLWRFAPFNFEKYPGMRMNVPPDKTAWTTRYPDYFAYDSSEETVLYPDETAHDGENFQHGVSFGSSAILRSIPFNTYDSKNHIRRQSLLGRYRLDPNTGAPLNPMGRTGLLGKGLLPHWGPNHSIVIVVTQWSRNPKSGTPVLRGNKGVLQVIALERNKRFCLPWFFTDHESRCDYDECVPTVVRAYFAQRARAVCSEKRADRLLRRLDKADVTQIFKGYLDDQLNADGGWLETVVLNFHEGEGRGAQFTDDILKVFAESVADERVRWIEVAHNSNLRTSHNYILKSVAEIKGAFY

Structure (SMILES) | previous studies S. mansoni in vitro (activity grade) [1] | activity at Sm.TRPMPZQ (in words) [2] | this work: EC50 (μM) Sm.TRPMPZQ [2] | previous studies H. nana in vivo (activity grade, worm reduction) [3] | activity at cestode TRPMPZQ orthologs (in words) [4] | previous studies S. mansoni in vivo (activity grade, worm reduction) [5] | EC50 [2] | IC50 ([6]; after 24 h) | contraction of the protoscoleces (in words) ([6]; (±)-PZQ 1 μM, (R)-2 30 μM, (S)-2 100 μM, compared with vehicle control) | IC50 ([6]; 12 h postincubation) | effect of prolonged treatment on protoscoleces (in words) ([6]; after 24 h) | effect of low concentrations on motility (in words) ([6]; low concentrations, early time points (0.5 h)) | concentrations activating both cestode TRPMPZQ representatives [4]
O=C(c1cccnc1)N1CC(=O)N2CCc3ccccc3C2C1 (racemic) [(±)-2] | + (“+” indicates a less than maximal effect at ≤320 μM) | little activity | inactive | +++ | low-micromolar potency | + |  |  |  |  |  |  | 
O=C(c1cccnc1)N1CC(=O)N2CCc3ccccc3[C@@H]2C1 [(R)-2] | 0 (“0” indicates no effect at ≤320 μM) |  |  | +++ |  | ++ | > 100 µM | ~3 µM |  |  |  |  | 
O=C(C1CCCCC1)N1CC(=O)N2CCc3ccccc3[C@@H]2C1 [(R)-PZQ, reference compound] | +++ (“+++” indicates a maximal effect ≤3.2 μM) |  |  | +++ |  | +++ |  |  |  |  |  |  | 
O=C(c1cccnc1)N1CC(=O)N2CCc3ccccc3[C@H]2C1 [(S)-2] | 0 (“0” indicates no effect at ≤320 μM) |  | inactive | ++ |  | 0 |  | ~30 µM |  |  |  |  | 
O=C(C1CCCCC1)N1CC(=O)N2CCc3ccccc3[C@H]2C1 [(S)-PZQ, reference compound] | ++ (“++” indicates a maximal effect ≤320 μM) |  |  | ++ |  | + |  |  |  |  |  |  | 
O=C(C1CCCCC1)N1CC(=O)N2CCc3ccccc3C2C1 (stereo not shown) [Compound 1, praziquantel] | +++ (“+++” indicates a maximal effect ≤3.2 μM) |  |  | +++ |  | +++ |  |  | sustained contraction | ~0.1 µM | toxic | stimulated motility | 
O=C(c1ccc([N+](=O)[O-])cc1)N1CC(=O)N2CCc3ccccc3C2C1 (stereo not shown) [Compound 3] | 0 (“0” indicates no effect at ≤320 μM) |  | inactive | ++ |  | + |  |  |  |  |  |  | 
CNc1ccc(C(=O)N2CC(=O)N3CCc4ccccc4C3C2)cc1 (stereo not shown) [Compound 4] | 0 (“0” indicates no effect at ≤320 μM) |  | inactive | +++ |  | ++ |  |  |  |  |  |  | 
CN(C)c1ccc(C(=O)N2CC(=O)N3CCc4ccccc4C3C2)cc1 (stereo not shown) [Compound 5] | 0 (“0” indicates no effect at ≤320 μM) |  | inactive | +++ |  | ++ |  |  |  |  |  |  | 
Nc1ccc(C(=O)N2CC(=O)N3CCc4ccccc4C3C2)cc1 (stereo not shown) [Compound 6] | ++ (“++” indicates a maximal effect ≤320 μM) |  |  | +++ |  | ++ | 11.6 µM and 12 µM |  |  |  |  |  | 
N[C@H]1CC[C@@H](C(=O)N2CC(=O)N3CCc4ccccc4C3C2)CC1 (stereo partly shown) [Compound 7] | 0 (“0” indicates no effect at ≤320 μM) | lacked activity | inactive | + | only weakly active | 0 |  |  |  |  |  |  | 
O=C(C1CC1)N1CC(=O)N2CCc3ccccc3C2C1 (stereo not shown) [Compound 8] | 0 (“0” indicates no effect at ≤320 μM) | Little activity | inactive | ++ | clearly active | + |  |  |  |  |  |  | > 10 µM
